For experiment [1], the system named is GlcCer synthase of MDCK cell homogenates. Nature of the experiment: Inhibition of ceramide glucosyltransferase (GlcCer synthase) of MDCK cell homogenates. Format: biochemical, canine. Conditions: for Inhibition at 5 μM: 5 μM inhibitor, triplicate ± SD, samples partly isomer mixtures. In outline:
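MDCK cell sonicate (~0.2 mg protein) incubated with octanoyl sphingosine (85 μg, in dioleoylphosphatidylcholine/sulfatide liposomes) and UDP-[^3H]glucose in a thermostatted ultrasonic bath. Aromatic inhibitors were dried into the tube; aliphatic inhibitors were incorporated in the substrate liposomes.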

Experiment [2] deals with H-460 lung large cell carcinoma cells. Nature of the experiment: Tumor cell growth in vitro (sulforhodamine B), H-460. Format: cell-based, human. Conditions: rounded off to one digit, read-out: Inhibition of tumor cell growth in vitro, IC50. As for the experimental part: (§1) Growth of cell lines. Comparisons of different inhibitors with regard to suppression of human cancer cell growth were made by the University of Michigan Cancer Center in vitro Drug Evaluation Core Laboratory. MCF-7 breast carcinoma cells, HT-29 colon adenocarcinoma cells, H-460 lung large cell carcinoma cells, and 9L brain gliosarcoma cells were grown in RPMI 1640 medium with 5% fetal bovine serum, 2 mM glutamine, 50 units/ml of penicillin, […] of streptomycin, and 0.1 mg/ml of neomycin. UMSCC-10A head and neck squamous carcinoma cells were grown in minimal essential medium with Earle salts and the same supplements. Medium components were from Sigma Chemical Co. Cells were plated in 96-well microtiter plates (1000 cells/well for H-460 and 9L cells, and 2000 cells/well for the other lines), and the test compounds were added 1 day later. The stock inhibitor solutions, 2 mM in 2 mM BSA, were diluted with different amounts of additional 2 mM BSA, then each solution was diluted 500-fold with growth medium to obtain the final concentrations indicated in the Figures and Tables.
(§2) Five days after plating the H-460 and 9L cells, or 6 days for the other lines, cell growth was evaluated by staining the adhering cells with sulforhodamine B and measuring the absorbance at 520 nm (Skehan, P. et al., “New Colorimetric Cytotoxicity Assay for Anticancer-Drug Screening,” J. Natl. Cancer Inst., 82:1107-1112 (1990)). The absorbance of the treated cultures is reported as percent of that of control cultures, to provide an estimate of the fraction of the cells that survived, or of inhibition of growth rate.

Experiment [3] concerns UMSCC-10A head and neck squamous carcinoma cells. Nature of the experiment: Tumor cell growth in vitro (sulforhodamine B), UMSCC-10A. Particulars: rounded off to one digit, read-out: Inhibition of tumor cell growth in vitro, IC50. Format: cell-based, human. As for the experimental part: as §1, §2
Another experiment deals with MDCK cells. Nature of the experiment: Lipid changes in MDCK cells (GlcCer, ceramide, diacylglycerol). Format: cell-based, canine. Conditions: for level of GlcCer, estimated visually (TLC): 24 h incubation; for Ceramide / Diglyceride: diglyceride kinase method. As for the experimental part:
TLC of the cell lipids was run with C-M-W 24:7:1 (solvent D) or 60:35:8 (solvent E).
Ceramide accumulation was similar for both stereoisomers (data not shown). An unexpected finding is that noticeable ceramide accumulation appeared only at inhibitor concentrations that were more than enough to bring GlcCer levels to a very low point (e.g., at 2 or 4 μM). The changes in ceramide concentration were quantitated in a separate experiment by the diglyceride kinase method, which allows one to also determine diacylglycerol (DAG) concentration (Preiss, J. E. et al., “Quantitative Measurement of SN-1,2-Diacylglycerols Present in Platelets, Hepatocytes, and Ras- and Sis-Transformed Normal Rat Kidney Cells,” J. Biol. Chem., 261:8597-8600 (1986)). The results (Table 5) are similar to the visually estimated ones: at 0.4 μM BML-129 or -130 there was little effect on ceramide content but at 4 μM inhibitor, a substantial increase was observed. (While the duplicate protein contents per incubation dish were somewhat erratic in the high-dose dishes, in which growth was slow, the changes were nevertheless large and clear.) Accumulation of ceramide had previously been observed with PDMP, at a somewhat higher level of inhibitor in the medium (Shayman, J. A. et al., “Modulation of Renal Epithelial Cell Growth by Glucosylceramide: Association with Protein Kinase C, Sphingosine, and Diacylglyceride,” J. Biol. Chem., 266:22968-22974 (1991)). From the data for cellular protein per incubation dish, it can be seen that there was no growth inhibition at the 0.4 μM level with either compound but substantial inhibition at the 4 μM level, especially with the glucosyltransferase inhibitor, BML-130. This finding is similar to the ones made in longer incubations with human cancer cells.

For experiment [4], the system named is Neutral sphingomyelinase (SMase). Nature of the experiment: Neutral sphingomyelinase of MDCK cells. Format: biochemical, canine. The procedure:
Acid and neutral SMase assays were based on the procedures of Gatt et al. (Gatt, S. et al., “Assay of Enzymes of Lipid Metabolism With Colored and Fluorescent Derivatives of Natural Lipids,” Meth. Enzymol., 72:351-375 (1981)), using liposomes containing NBD-SM dispersed like the labeled ceramide (10 μM substrate and 30 μM lecithin). […] Incubation was at 37° C. for 30 min in the ultrasonic bath, then the fluorescent product, NBD-ceramide, was isolated by partitioning the assay mixture with 0.45 ml 2-propanol, 1.5 ml heptane, and 0.2 ml water. After centrifugation, a trace of contaminating NBD-SM was removed from 0.9 ml of the upper layer by washing with 0.35 ml water. The upper layer was analyzed with a fluorometer (460 nm excitation, 515 nm emission).

The test system of another experiment is Sphingomyelin synthase. The experiment in a line: Sphingomyelin synthase of MDCK homogenate. Format: biochemical, canine. The procedure: Sphingomyelin synthase was evaluated with 44 μM [^14C]decanoyl sphingosine (10^5 cpm) dispersed with 136 μM dioleoyllecithin as in the ceramide synthase assay, and 5 mM EDTA and 50 mM Hepes-Na^+ pH 7.5, in a total volume of 0.5 ml. MDCK homogenate was centrifuged at 600×g briefly, then at 100,000×g for 1 h, and the pellet was suspended in water and sonicated with a dipping probe. A portion of this suspension containing 300 μg of protein was used. Incubation was at 37° C. for 30 min, after which the lipids were treated as above, using C-M-W 60:35:8 for the isolation of the labeled decanoyl SM.

As usually defined, the Inhibition is the percentage by which the read-out fell short of the control. What is called IC50 is the concentration needed to halve the response being measured.

The structures appear in SMILES notation. Values joined by “and” are separate entries in the source; they are usually repeats but may differ in a detail not shown here. Equal entries are not always repeated. Marks after values point to notes of the source that are not given here.

Regarding `CCCCCCCCCCCCCCCC(=O)NC(CN1CCCC1)C(O)c1ccccc1` (racemic) [BML-130], the “Inhibition at 5 μM” value in experiment [1] was 79%. The “degree of inhibition of GlcCer synthase” value in experiment [1] (6 μM, inhibitor incorporated into the substrate liposomes) worked out at 89±0.6%. The figures for the IC50 in experiment [2] and in experiment [3] were 3 µM and 2 µM, respectively. In the experiment with MDCK cells (0.3 μM), the “level of GlcCer, estimated visually (TLC)” value is “greatly lowered”. Besides, the Ceramide in the experiment with MDCK cells (0.4 μM) is 0.94 nmol/mg protein and 0.87 nmol/mg protein; in the experiment with MDCK cells (4 μM), 5.41 nmol/mg protein and 3.34 nmol/mg protein. Besides, the Diglyceride is 4.73 nmol/mg protein and 5.65 nmol/mg protein in the experiment with MDCK cells (0.4 μM); 11.9 nmol/mg protein and 8.71 nmol/mg protein in the experiment with MDCK cells (4 μM). Further, the “Sphingomyelinase pH 7.1, enzyme activity (% of control)” value in experiment [4] (5 μM) was 110 ± 7 % of control; in experiment [4] (50 μM) it was 152 ± 14 % of control. Further, the “Sphingomyelinase Synthase, enzyme activity (% of control)” value with Sphingomyelin synthase (5 μM) is given as 87 ± 14 % of control; in the experiment on Sphingomyelin synthase (50 μM) it was 39 ± 18^b % of control. Further, the “inhibition of sphingomyelin synthase” value in the experiment with Sphingomyelin synthase (50 μM) is given as 61%.

As to `CCCCCCCCCCCCCCCC(=O)NC(CN1CCCC1)C(O)c1ccccc1` (racemic) [BML-129], the “Inhibition at 5 μM” value in experiment [1] is given as 15%. Moreover, the IC50 in experiment [2] and in experiment [3] was 2 µM in each case. Moreover, the Ceramide was 0.99 nmol/mg protein and 1.29 nmol/mg protein in the experiment on MDCK cells (0.4 μM); 3.57 nmol/mg protein and 3.78 nmol/mg protein with MDCK cells (4 μM). Also, the Diglyceride in the experiment on MDCK cells (0.4 μM) was 5.13 nmol/mg protein and 5.51 nmol/mg protein; with MDCK cells (4 μM) it was 9.30 nmol/mg protein and 9.68 nmol/mg protein. In addition, in the experiment on MDCK cells (0.5 μM), the “level of GlcCer, estimated visually (TLC)” value is recorded as “greatly lowered”. In addition, the “Sphingomyelinase pH 7.1, enzyme activity (% of control)” value in experiment [4] (5 μM) is reported as 105 ± 11 % of control; in experiment [4] (50 μM), 142 ± 11^b % of control. Further, the results for the “Sphingomyelinase Synthase, enzyme activity (% of control)” value with Sphingomyelin synthase (5 μM) and in the experiment on Sphingomyelin synthase (50 μM) were 84 ± 27 % of control and 46 ± 11^b % of control, respectively. For the same molecule, the “inhibition of sphingomyelin synthase” value with Sphingomyelin synthase (50 μM) stood at 54%.

The values are drawn from patent publication US6916802B2, “Amino ceramide-like compounds and therapeutic methods of use” (Genzyme Corporation, priority 2002, dated 2005).
